Results taken from publication PMC13210772, “Dual FLT3/MAPK14 Proteolysis-Targeting Chimera (PROTAC) Induces Potent Acute Myeloid Leukemia Cell Death” (Pharmaceuticals, 2026).

How the values were obtained:
Experiment in all cases: NanoBRET CELLinib128
AURKB = target: T1, AURKB (Homo sapiens, UniProt Q96GD4); format: binding; settings: 100% no effect, 0% complete tracer displacement, read-out: Tracer bound
T1 construct: Full-length kinase ORF (Promega, Madison, WI, USA) cloned in frame with a NanoLuc-vector was transfected into HEK293T cells; host or cells: HEK293T
Description: (§1) To get an impression about the binding strength of the PROTAC MA191 and the reference inhibitor MA68 to other kinases besides FLT3-ITD the binding on a kinase panel of further 128 representative protein kinases at 1 μM concentration was tested using the NanoBRET^TM cellular target engagement assay (CELLinib128 assay, CELLinib GmbH, Frankfurt, Germany). […] In none of the 128 kinases MA191 was able to displace the tracer (inhibitor) used by more than 50%, Table S1, Supplementary Information).
(§2) The CELLinib128 assay was performed by CELLinib GmbH, Frankfurt (Germany) as described previously. In brief: Full-length kinase ORF (Promega, Madison, WI, USA) cloned in frame with a NanoLuc-vector was transfected into HEK293T cells in Opti-MEM without phenol red (Life Technologies, Carlsbad, CA, USA) at a density of 2 × 10^5 cells/mL using FuGENE HD (Promega, E2312) and proteins were allowed to express for 20 h. For CDKs, where indicated below, an excess of an activator without an NLuc-fusion was cotransfected. […] The system was allowed to equilibrate at 37 °C for 2 h and 5% CO2 prior to BRET measurements. For PKCs, a chemical activator PMA was added in a final concentration of 1 µM was added together with test compounds and tracers (Promega, V1171). To measure BRET, NanoBRET^TM NanoGlo substrate + extracellular NanoLuc inhibitor (Promega, N2160) were added as per the manufacturer’s protocol, and filtered luminescence was measured (450 nm BP filter (donor) and 610 nm LP filter (acceptor)). For the 1-shot test compounds, data were normalized to the tracer control and the background control or control compound plateau and an average and SD were calculated. […] For the control compounds competitive displacement data were normalized to the tracer Ctrl and the background Ctrl and then plotted and fitted using GraphPad Prism 10 software using a normalized 3-parameter curve fit with the following equation: Y = 100/(1 + 10^X−LogIC50).

AURKC = target: T2, AURKC (Homo sapiens, UniProt Q9UQB9); format: binding; settings: 100% no effect, 0% complete tracer displacement, read-out: Tracer bound
T2 construct: Full-length kinase ORF (Promega, Madison, WI, USA) cloned in frame with a NanoLuc-vector was transfected into HEK293T cells; host or cells: HEK293T
Description: as §1, §2

CDK14-CCNY = target: T3, CDK14-CCNY (Homo sapiens, UniProt O94921); format: binding; settings: 1 µM; 100% no effect, 0% complete tracer displacement
T3 construct: Full-length kinase ORF (Promega, Madison, WI, USA) cloned in frame with a NanoLuc-vector was transfected into HEK293T cells; host or cells: HEK293T
Description: as §1, §2

CDK18-CCNY = target: T4, CDK18-CCNY (Homo sapiens, UniProt Q07002); format: binding; settings: 100% no effect, 0% complete tracer displacement, read-out: Tracer bound
T4 construct: Full-length kinase ORF (Promega, Madison, WI, USA) cloned in frame with a NanoLuc-vector was transfected into HEK293T cells; host or cells: HEK293T
Description: as §1, §2

CDK2-CCNE1 = target: T5, CDK2-CCNE1 (Homo sapiens, UniProt P24941); format: binding; settings: 1 µM; 100% no effect, 0% complete tracer displacement
T5 construct: Full-length kinase ORF (Promega, Madison, WI, USA) cloned in frame with a NanoLuc-vector was transfected into HEK293T cells; host or cells: HEK293T
Description: as §1, §2

CDK4-CCND3 = target: T6, CDK4-CCND3 (Homo sapiens, UniProt P11802); format: binding; settings: 100% no effect, 0% complete tracer displacement, read-out: Tracer bound
T6 construct: Full-length kinase ORF (Promega, Madison, WI, USA) cloned in frame with a NanoLuc-vector was transfected into HEK293T cells; host or cells: HEK293T
Description: as §1, §2

CDK5-CDK5R2 = target: T7, CDK5-CDK5R2 (Homo sapiens, UniProt Q00535); format: binding; settings: 100% no effect, 0% complete tracer displacement, read-out: Tracer bound
T7 construct: Full-length kinase ORF (Promega, Madison, WI, USA) cloned in frame with a NanoLuc-vector was transfected into HEK293T cells; host or cells: HEK293T
Description: as §1, §2

CSNK1G2 = target: T8, CSNK1G2 (Homo sapiens, UniProt P78368); format: binding; settings: 1 µM; 100% no effect, 0% complete tracer displacement
T8 construct: Full-length kinase ORF (Promega, Madison, WI, USA) cloned in frame with a NanoLuc-vector was transfected into HEK293T cells; host or cells: HEK293T
Description: as §1, §2

FGFR2 = target: T9, FGFR2 (Homo sapiens, UniProt P21802); format: binding; settings: 100% no effect, 0% complete tracer displacement, read-out: Tracer bound
T9 construct: Full-length kinase ORF (Promega, Madison, WI, USA) cloned in frame with a NanoLuc-vector was transfected into HEK293T cells; host or cells: HEK293T
T9 sequence (P21802 22-821): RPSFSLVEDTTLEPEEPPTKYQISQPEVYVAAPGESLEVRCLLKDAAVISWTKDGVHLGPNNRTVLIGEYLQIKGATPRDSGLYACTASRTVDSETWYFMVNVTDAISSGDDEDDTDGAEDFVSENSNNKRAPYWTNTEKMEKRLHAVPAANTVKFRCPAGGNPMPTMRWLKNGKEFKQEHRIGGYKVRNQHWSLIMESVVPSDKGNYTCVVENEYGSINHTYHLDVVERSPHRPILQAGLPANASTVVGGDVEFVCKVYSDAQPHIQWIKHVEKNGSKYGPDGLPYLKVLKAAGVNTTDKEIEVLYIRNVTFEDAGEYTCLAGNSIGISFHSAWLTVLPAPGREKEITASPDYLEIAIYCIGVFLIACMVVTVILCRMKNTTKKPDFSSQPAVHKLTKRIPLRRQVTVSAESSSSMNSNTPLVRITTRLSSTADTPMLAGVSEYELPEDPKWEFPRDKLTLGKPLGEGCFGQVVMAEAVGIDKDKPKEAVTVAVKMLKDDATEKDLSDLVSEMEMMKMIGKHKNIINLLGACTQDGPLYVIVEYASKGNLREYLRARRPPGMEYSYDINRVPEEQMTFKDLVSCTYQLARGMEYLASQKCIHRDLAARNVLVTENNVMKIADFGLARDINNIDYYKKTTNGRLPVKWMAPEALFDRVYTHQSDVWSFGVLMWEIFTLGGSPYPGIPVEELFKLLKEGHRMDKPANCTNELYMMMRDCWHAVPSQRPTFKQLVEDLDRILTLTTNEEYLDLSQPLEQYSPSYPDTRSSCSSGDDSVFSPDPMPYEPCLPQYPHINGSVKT
Description: as §1, §2

LIMK2 = target: T10, LIMK2 (Homo sapiens, UniProt P53671); format: binding; settings: 100% no effect, 0% complete tracer displacement, read-out: Tracer bound
T10 construct: Full-length kinase ORF (Promega, Madison, WI, USA) cloned in frame with a NanoLuc-vector was transfected into HEK293T cells; host or cells: HEK293T
Description: as §1, §2

PAK4 = target: T11, PAK4 (Homo sapiens, UniProt O96013); format: binding; settings: 100% no effect, 0% complete tracer displacement, read-out: Tracer bound
T11 construct: Full-length kinase ORF (Promega, Madison, WI, USA) cloned in frame with a NanoLuc-vector was transfected into HEK293T cells; host or cells: HEK293T
Description: as §1, §2

PHKG1 = target: T12, PHKG1 (Homo sapiens, UniProt Q16816); format: binding; settings: 100% no effect, 0% complete tracer displacement, read-out: Tracer bound
T12 construct: Full-length kinase ORF (Promega, Madison, WI, USA) cloned in frame with a NanoLuc-vector was transfected into HEK293T cells; host or cells: HEK293T
Description: as §1, §2

PRKAA1 = target: T13, PRKAA1 (Homo sapiens, UniProt Q13131); format: binding; settings: 100% no effect, 0% complete tracer displacement, read-out: Tracer bound
T13 construct: Full-length kinase ORF (Promega, Madison, WI, USA) cloned in frame with a NanoLuc-vector was transfected into HEK293T cells; host or cells: HEK293T
Description: as §1, §2

PRKAA2 = target: T14, PRKAA2 (Homo sapiens, UniProt P54646); format: binding; settings: 100% no effect, 0% complete tracer displacement, read-out: Tracer bound
T14 construct: Full-length kinase ORF (Promega, Madison, WI, USA) cloned in frame with a NanoLuc-vector was transfected into HEK293T cells; host or cells: HEK293T
Description: as §1, §2

PRKCD-PMA = target: T15, PRKCD-PMA (Homo sapiens, UniProt Q05655); format: binding; settings: 100% no effect, 0% complete tracer displacement, read-out: Tracer bound
T15 construct: Full-length kinase ORF (Promega, Madison, WI, USA) cloned in frame with a NanoLuc-vector was transfected into HEK293T cells; host or cells: HEK293T
Description: as §1, §2

PTK2 = target: T16, PTK2 (Homo sapiens, UniProt Q05397); format: binding; settings: 100% no effect, 0% complete tracer displacement, read-out: Tracer bound
T16 construct: Full-length kinase ORF (Promega, Madison, WI, USA) cloned in frame with a NanoLuc-vector was transfected into HEK293T cells; host or cells: HEK293T
T16 sequence (Q05397 whole entry): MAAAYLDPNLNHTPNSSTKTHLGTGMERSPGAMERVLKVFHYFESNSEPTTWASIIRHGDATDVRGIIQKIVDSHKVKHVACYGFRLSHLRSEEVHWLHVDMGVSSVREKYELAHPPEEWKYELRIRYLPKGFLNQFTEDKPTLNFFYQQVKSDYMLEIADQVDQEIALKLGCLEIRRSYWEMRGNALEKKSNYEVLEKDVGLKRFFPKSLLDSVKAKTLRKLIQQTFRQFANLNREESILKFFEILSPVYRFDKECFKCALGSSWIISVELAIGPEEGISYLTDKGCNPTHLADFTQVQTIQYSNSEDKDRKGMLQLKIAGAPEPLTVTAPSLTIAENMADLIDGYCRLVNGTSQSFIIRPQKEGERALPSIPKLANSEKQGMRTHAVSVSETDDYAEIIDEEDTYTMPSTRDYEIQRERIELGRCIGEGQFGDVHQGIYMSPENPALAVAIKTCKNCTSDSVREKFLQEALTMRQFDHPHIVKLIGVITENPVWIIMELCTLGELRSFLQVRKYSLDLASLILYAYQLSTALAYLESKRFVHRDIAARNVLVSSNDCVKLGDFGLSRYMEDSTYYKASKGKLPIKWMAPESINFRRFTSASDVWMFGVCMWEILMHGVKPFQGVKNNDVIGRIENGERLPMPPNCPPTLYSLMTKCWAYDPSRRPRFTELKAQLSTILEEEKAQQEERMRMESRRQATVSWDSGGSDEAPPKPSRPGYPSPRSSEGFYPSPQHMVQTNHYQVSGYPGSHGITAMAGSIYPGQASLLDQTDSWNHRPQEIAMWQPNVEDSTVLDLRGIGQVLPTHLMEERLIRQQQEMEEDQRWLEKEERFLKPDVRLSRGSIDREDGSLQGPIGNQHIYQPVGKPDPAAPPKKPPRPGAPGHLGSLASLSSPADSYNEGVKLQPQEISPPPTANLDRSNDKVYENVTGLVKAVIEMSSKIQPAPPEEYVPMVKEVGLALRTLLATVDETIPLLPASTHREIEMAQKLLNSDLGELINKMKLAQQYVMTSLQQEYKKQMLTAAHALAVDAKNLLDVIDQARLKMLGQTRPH
Description: as §1, §2

RPS6KA3 = target: T17, RPS6KA3 (Homo sapiens, UniProt P51812); format: binding; settings: 100% no effect, 0% complete tracer displacement, read-out: Tracer bound
T17 construct: Full-length kinase ORF (Promega, Madison, WI, USA) cloned in frame with a NanoLuc-vector was transfected into HEK293T cells; host or cells: HEK293T
Description: as §1, §2

STK33 = target: T18, STK33 (Homo sapiens, UniProt Q9BYT3); format: binding; settings: 100% no effect, 0% complete tracer displacement, read-out: Tracer bound
T18 construct: Full-length kinase ORF (Promega, Madison, WI, USA) cloned in frame with a NanoLuc-vector was transfected into HEK293T cells; host or cells: HEK293T
T18 sequence (Q9BYT3 whole entry): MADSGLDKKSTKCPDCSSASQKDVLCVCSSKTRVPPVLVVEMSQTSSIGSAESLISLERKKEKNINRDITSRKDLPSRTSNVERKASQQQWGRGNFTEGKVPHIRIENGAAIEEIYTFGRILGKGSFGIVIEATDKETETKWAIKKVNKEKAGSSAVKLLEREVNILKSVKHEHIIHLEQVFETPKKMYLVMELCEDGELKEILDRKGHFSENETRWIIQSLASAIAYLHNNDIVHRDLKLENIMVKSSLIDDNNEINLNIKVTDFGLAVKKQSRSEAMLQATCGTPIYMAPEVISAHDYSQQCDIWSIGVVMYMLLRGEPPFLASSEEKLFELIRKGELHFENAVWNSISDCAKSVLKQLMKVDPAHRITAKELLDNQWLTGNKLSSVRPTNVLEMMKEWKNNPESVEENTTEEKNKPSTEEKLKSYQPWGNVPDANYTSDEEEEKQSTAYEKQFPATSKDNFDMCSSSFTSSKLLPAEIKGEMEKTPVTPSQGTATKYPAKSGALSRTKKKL
Description: as §1, §2

STK35 = target: T19, STK35 (Homo sapiens, UniProt Q8TDR2); format: binding; settings: 100% no effect, 0% complete tracer displacement, read-out: Tracer bound
T19 construct: Full-length kinase ORF (Promega, Madison, WI, USA) cloned in frame with a NanoLuc-vector was transfected into HEK293T cells; host or cells: HEK293T
T19 sequence (Q8TDR2 whole entry): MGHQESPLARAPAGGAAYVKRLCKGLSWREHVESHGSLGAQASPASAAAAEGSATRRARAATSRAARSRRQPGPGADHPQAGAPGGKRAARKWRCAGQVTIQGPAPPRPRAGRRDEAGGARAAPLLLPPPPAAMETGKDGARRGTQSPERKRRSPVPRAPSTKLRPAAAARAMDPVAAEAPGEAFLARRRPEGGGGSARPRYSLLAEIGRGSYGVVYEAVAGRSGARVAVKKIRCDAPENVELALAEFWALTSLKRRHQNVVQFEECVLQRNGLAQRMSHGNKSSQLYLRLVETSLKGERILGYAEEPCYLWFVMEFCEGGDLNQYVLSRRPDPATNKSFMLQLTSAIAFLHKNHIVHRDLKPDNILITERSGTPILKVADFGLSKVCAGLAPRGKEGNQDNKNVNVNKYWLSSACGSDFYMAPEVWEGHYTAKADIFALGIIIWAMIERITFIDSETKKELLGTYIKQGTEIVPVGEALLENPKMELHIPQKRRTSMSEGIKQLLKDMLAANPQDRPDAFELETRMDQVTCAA
Description: as §1, §2

TBK1 = target: T20, TBK1 (Homo sapiens, UniProt Q9UHD2); format: binding; settings: 100% no effect, 0% complete tracer displacement, read-out: Tracer bound
T20 construct: Full-length kinase ORF (Promega, Madison, WI, USA) cloned in frame with a NanoLuc-vector was transfected into HEK293T cells; host or cells: HEK293T
Description: as §1, §2

TNNI3K = target: T21, TNNI3K (Homo sapiens, UniProt Q59H18); format: binding; settings: 100% no effect, 0% complete tracer displacement, read-out: Tracer bound
T21 construct: Full-length kinase ORF (Promega, Madison, WI, USA) cloned in frame with a NanoLuc-vector; host or cells: HEK293T
Description: as §1, §2

TYK2 = target: T22, TYK2 (Homo sapiens, UniProt P29597); format: binding; settings: 1 µM; 100% no effect, 0% complete tracer displacement
T22 construct: Full-length kinase ORF (Promega, Madison, WI, USA) cloned in frame with a NanoLuc-vector; host or cells: HEK293T
Description: as §1, §2

WEE2 = target: T23, WEE2 (Homo sapiens, UniProt P0C1S8); format: binding; settings: 100% no effect, 0% complete tracer displacement, read-out: Tracer bound
T23 construct: Full-length kinase ORF (Promega, Madison, WI, USA) cloned in frame with a NanoLuc-vector; host or cells: HEK293T
Description: as §1, §2

EPHB2 = target: T24, EPHB2 (Homo sapiens, UniProt P29323); format: binding; settings: 1 µM; 100% no effect, 0% complete tracer displacement
T24 construct: Full-length kinase ORF (Promega, Madison, WI, USA) cloned in frame with a NanoLuc-vector was transfected into HEK293T cells; host or cells: HEK293T

FRK = target: T25, FRK (Homo sapiens, UniProt P42685); format: binding; settings: 100% no effect, 0% complete tracer displacement, read-out: Tracer bound
T25 construct: Full-length kinase ORF (Promega, Madison, WI, USA) cloned in frame with a NanoLuc-vector was transfected into HEK293T cells; host or cells: HEK293T

ALK = ALK (Homo sapiens, UniProt Q9UM73); settings: read-out: Tracer bound
Sequence of ALK (Q9UM73 19-1620): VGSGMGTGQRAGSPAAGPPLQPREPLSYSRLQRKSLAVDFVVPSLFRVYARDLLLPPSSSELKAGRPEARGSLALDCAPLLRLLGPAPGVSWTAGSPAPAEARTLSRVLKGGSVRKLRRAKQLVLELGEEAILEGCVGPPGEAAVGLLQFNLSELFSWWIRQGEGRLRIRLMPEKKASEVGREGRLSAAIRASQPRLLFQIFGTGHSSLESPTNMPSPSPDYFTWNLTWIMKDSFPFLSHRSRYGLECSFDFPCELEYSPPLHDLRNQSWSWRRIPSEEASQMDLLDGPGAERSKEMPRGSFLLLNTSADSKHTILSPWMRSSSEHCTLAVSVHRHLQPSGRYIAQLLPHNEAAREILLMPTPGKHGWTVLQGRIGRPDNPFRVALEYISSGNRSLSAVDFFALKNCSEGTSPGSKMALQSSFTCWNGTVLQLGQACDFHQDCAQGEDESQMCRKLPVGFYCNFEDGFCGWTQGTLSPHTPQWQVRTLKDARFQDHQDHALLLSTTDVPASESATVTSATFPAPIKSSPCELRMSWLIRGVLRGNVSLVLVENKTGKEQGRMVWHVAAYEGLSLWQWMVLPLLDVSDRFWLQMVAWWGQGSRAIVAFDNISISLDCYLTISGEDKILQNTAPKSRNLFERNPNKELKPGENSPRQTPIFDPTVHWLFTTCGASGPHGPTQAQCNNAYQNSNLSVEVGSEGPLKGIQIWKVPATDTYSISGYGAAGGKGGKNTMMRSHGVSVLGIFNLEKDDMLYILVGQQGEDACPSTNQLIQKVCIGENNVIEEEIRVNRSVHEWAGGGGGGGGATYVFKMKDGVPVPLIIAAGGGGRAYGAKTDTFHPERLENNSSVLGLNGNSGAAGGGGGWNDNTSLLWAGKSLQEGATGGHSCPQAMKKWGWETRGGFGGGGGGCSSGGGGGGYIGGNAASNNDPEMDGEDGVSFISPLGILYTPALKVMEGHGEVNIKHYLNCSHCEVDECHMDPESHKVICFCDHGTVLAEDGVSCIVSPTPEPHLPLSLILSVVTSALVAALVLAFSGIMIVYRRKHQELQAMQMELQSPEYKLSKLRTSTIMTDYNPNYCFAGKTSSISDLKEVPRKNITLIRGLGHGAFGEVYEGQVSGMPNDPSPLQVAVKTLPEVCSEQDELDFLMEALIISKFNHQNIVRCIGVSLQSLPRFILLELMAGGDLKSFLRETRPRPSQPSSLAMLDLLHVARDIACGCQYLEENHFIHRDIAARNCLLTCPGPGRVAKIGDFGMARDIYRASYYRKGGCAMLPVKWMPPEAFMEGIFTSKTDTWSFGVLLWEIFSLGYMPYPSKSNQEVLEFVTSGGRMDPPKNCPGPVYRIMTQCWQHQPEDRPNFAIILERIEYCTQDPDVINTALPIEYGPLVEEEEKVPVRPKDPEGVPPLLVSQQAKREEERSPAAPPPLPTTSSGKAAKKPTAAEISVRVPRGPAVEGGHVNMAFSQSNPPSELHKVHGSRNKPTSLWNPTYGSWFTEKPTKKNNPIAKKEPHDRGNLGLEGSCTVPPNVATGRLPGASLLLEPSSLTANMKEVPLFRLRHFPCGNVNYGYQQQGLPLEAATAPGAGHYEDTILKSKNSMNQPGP

MAPK14 = MAPK14 (Homo sapiens, UniProt Q16539); settings: 1 µM; 100% no effect, 0% complete tracer displacement
MARK3 = MARK3 (Homo sapiens, UniProt P27448); settings: read-out: Tracer bound
STK26 = STK26 (Homo sapiens, UniProt Q9P289); settings: read-out: Tracer bound
Sequence of STK26 (Q9P289 whole entry): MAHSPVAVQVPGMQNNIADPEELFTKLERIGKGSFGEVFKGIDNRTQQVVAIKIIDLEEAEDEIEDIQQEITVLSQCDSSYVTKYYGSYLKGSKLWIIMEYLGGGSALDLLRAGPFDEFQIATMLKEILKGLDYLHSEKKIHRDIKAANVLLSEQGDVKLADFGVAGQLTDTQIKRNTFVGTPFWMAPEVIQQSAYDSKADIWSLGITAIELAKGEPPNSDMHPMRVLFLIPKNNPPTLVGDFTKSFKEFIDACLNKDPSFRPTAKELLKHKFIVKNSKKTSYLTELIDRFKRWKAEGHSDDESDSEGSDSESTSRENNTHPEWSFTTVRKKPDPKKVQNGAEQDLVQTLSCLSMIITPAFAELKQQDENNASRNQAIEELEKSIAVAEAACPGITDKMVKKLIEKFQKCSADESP

Compound	remaining activity at 1 µM (AURKB) [%]	remaining activity at 1 µM (AURKC) [%]	Tracer bound (CDK14-CCNY) [%]	remaining activity at 1 µM (CDK18-CCNY) [%]	Tracer bound (CDK2-CCNE1) [%]	remaining activity at 1 µM (CDK4-CCND3) [%]	remaining activity at 1 µM (CDK5-CDK5R2) [%]	Tracer bound (CSNK1G2) [%]	remaining activity at 1 µM (FGFR2) [%]	remaining activity at 1 µM (LIMK2) [%]	remaining activity at 1 µM (PAK4) [%]	remaining activity at 1 µM (PHKG1) [%]	remaining activity at 1 µM (PRKAA1) [%]	remaining activity at 1 µM (PRKAA2) [%]	remaining activity at 1 µM (PRKCD-PMA) [%]	remaining activity at 1 µM (PTK2) [%]	remaining activity at 1 µM (RPS6KA3) [%]	remaining activity at 1 µM (STK33) [%]	remaining activity at 1 µM (STK35) [%]	remaining activity at 1 µM (TBK1) [%]	further results
CNC(=O)c1cc(Oc2ccc(NC(=O)Nc3cc(C(C)(C)C)on3)cc2)ccn1 [MA68, reference compound]	76.4	102	42.0	28.6	96.0	29.7	86.1	95.1	40.7	88.5	97.7	87.3	114	109	113	118	118	94.8	59.6	107	remaining activity at 1 µM (TNNI3K): 15.1%; Tracer bound (TYK2): 103.2%; remaining activity at 1 µM (WEE2): 102%; Tracer bound (EPHB2): 49.5%; remaining activity at 1 µM (FRK): 68.2%; remaining activity at 1 µM (ALK): 109%; Tracer bound (MAPK14): 25.9%; remaining activity at 1 µM (MARK3): 105%; remaining activity at 1 µM (STK26): 88.5%
Cc1ncsc1-c1ccc([C@H](C)NC(=O)[C@@H]2C[C@@H](O)CN2C(=O)[C@@H](NC(=O)[C@H]2CC[C@H](C(=O)N3CCN(CCNC(=O)c4cc(Oc5ccc(NC(=O)Nc6cc(C(C)(C)C)on6)cc5)ccn4)CC3)CC2)C(C)(C)C)cc1 [MA191, 4-(4-(3-(5-(tert-Butyl)isoxazol-3-yl)ureido)phenoxy)-N-(2-(4-(trans-4-(((S)-1-((2S,4R)-4-hydroxy-2-(((S)-1-(4-(4-methylthiazol-5-yl)phenyl)ethyl)carbamoyl)pyrrolidin-1-yl)-3,3-dimethyl-1-oxobutan-2-yl)carbamoyl)cyclohexanecarbonyl)piperazin-1-yl)ethyl)picolinamide]	109	110	95.7	95.9	102.5	105	104	92.4	109	105	101	93.5	110	119	115	113	120	99	95.8	108	remaining activity at 1 µM (TNNI3K): 83.2%; Tracer bound (TYK2): 105.6%; remaining activity at 1 µM (WEE2): 99.3%; Tracer bound (EPHB2): 120.0%; remaining activity at 1 µM (FRK): 117%; remaining activity at 1 µM (ALK): 105%; Tracer bound (MAPK14): 70.3%; remaining activity at 1 µM (MARK3): 102%; remaining activity at 1 µM (STK26): 82.3%
